As a reminder, the EC50 is the midpoint of the concentration-response curve.

Non-standard residues stand in square brackets, D forms with d. Residues, ends and D or L forms follow the SMILES beside them. *: point of attachment. NMeI = CC[C@H](C)[C@H](NC)C(=O)O; NMeD = CN[C@@H](CC(=O)O)C(=O)O; NMeV = CN[C@H](C(=O)O)C(C)C; Pip = O=C(O)[C@@H]1CCCCN1; dLac = C[C@@H](O)C(=O)O; OtBu = CC(C)(C)O*

What all share (type): functional, cell-based
Data set [1] concerns the target ATP-dependent translocase ABCB1 (Homo sapiens, UniProt P08183). As to the kind of experiment: (§1) TP_TRANSPORTER: increase in Calcein-AM intracellular accumulation (Calcein-AM: 0.25 uM) in MDR-CEM cells.
Data set [2] deals with T1, ATP-dependent translocase ABCB1 (P-glycoprotein) (Homo sapiens, UniProt P08183). Described as §1. The settings on record: human, MDR-CEM cells, probe Calcein-AM.
Data set [3] addresses T1, ATP-dependent translocase ABCB1 (P-glycoprotein). As to the kind of experiment: TP_TRANSPORTER: increase in Calcein-AM intracellular accumulation (Calcein-AM: 0.25 uM) in MDR-P388 cells. The note with it: mouse, probe Calcein-AM.

T1 sequence (P08183 whole entry): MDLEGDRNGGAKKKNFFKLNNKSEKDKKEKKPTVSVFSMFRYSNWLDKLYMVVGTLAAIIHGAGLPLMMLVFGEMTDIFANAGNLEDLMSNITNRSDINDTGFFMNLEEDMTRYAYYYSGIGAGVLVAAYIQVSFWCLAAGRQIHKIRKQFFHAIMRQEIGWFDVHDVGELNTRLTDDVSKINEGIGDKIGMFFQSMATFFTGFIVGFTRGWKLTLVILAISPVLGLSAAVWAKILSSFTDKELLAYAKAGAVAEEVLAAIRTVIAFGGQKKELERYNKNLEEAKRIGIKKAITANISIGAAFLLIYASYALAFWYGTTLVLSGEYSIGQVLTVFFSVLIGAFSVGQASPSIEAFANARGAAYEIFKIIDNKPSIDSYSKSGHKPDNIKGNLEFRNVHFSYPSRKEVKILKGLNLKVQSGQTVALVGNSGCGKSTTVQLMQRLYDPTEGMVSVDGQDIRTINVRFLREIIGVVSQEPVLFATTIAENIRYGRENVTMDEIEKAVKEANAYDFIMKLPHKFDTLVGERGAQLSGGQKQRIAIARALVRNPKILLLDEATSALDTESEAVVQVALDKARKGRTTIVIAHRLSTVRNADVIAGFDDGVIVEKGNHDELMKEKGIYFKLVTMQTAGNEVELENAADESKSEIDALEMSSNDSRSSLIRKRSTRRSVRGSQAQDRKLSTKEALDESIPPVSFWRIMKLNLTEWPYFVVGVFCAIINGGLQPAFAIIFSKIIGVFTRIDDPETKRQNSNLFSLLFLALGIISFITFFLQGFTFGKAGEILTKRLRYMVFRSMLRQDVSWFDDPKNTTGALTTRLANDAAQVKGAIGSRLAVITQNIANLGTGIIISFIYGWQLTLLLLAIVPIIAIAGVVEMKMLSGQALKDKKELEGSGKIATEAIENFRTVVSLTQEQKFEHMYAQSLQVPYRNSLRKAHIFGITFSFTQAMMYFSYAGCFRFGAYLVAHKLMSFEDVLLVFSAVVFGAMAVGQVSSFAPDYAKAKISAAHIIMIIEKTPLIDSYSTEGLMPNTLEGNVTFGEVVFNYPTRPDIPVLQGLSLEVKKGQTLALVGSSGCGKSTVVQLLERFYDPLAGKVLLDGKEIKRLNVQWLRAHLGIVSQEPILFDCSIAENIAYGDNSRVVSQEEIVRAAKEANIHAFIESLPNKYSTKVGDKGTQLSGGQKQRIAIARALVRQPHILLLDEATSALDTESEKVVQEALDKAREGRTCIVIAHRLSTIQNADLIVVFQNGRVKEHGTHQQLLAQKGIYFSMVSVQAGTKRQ
Sequence of ATP-dependent translocase ABCB1 (P08183 whole entry): as above

In the case of `CCN(CC)CCCC(C)Nc1c2ccc(Cl)cc2nc2ccc(OC)cc12` (stereo not drawn) [QUINACRINE], the EC50 in data set [1] is 14400 nM. Turning to `CC[C@H](C)[C@H]1C(=O)NCC(=O)N(C)[C@@H](C(C)C)C(=O)N[C@@H](Cc2ccc(OC)cc2)C(=O)O[C@H](C)C(=O)N2CCCC[C@H]2C(=O)N(C)[C@@H](C(C)C)C(=O)N[C@@H](C(C)C)C(=O)N(C)[C@@H](CC(=O)OC(C)(C)C)C(=O)N(C)[C@@H]([C@@H](C)CC)C(=O)N1C` (cyclo(G[NMeV]Y(Me)[dLac][Pip][NMeV]V[NMeD](OtBu)[NMeI][NMeI])), the EC50 in data set [2] was 220 nM; in data set [3], 60 nM.

(Values after ChEMBL document CHEMBL2074051, “Ranking of P-glycoprotein substrates and inhibitors by a calcein-AM fluorometry screening assay” (Anticancer Drugs, 1996).)
